# Measurements from US7687540B2, “Substituted propane phosphinic acid esters” (Aventis Pharmaceuticals Inc., priority 2005, dated 2010).
# Columns and labels:
# Male Wistar rats = experiment: Chronic Mild Stress Model (CMS), sucrose consumption; type: in vivo; details: 3 and 30 mg/kg orally, daily for five weeks; imipramine 10 mg/kg ip
# Text: CMS uses mild stressors, such as food and water deprivation, cage tilts, changes of cage mates, etc. Over a period of weeks of exposure to the mild stressors, the animals gradually reduce their consumption of a highly preferred sucrose solution which persists (in untreated animals) for several weeks following the cessation of stress. This decreased sensitivity to reward (the sucrose solution) reflects anhedonia, a symptom of a major depressive episode (see for example, Behavioral Pharmacol. 5: Suppl. 1, p. 86 (1994) where lithium, carbamazepine and ketoconazole were evaluated in CMS; Psychopharmacology 93:358-364 (1987) where a tricyclic antidepressant was evaluated in CMS; Behavioral Pharmacology: 5:344-350 (1994) where a catechol-O-methyl transferase inhibitor was evaluated in CMS). […]
# The animals are first trained to consume a 1% sucrose solution; training consists of eight 1 hour baseline tests in which sucrose is presented, in the home cage, following 14 hours food and water deprivation; intake is measured by weighing pre-weighed bottles containing the sucrose solution at the end of the test. Subsequently, sucrose consumption is monitored, under similar conditions, at weekly intervals throughout the whole experiment. […]
# Results are analyzed by multiple analysis of variance, followed by Fisher's LSD test for post hoc comparisons of means.
# [1] = Brain levels after oral dosing in mice by LC/MS/MS; type: in vivo, Male CD1 mice; details: brains collected at 2, 4 and 7 hrs post-dose after oral dosing of test compounds
# Protocol: Animals: Male CD1 mice (Charles River) weighing about 25 g—with free access to food and water.
# Dose Groups The compounds of this invention were administered to the test animals at a dose, which is molar equivalent to 10 mg/kg of the parent compound, ((R)-3-amino-2-hydroxy-propyl)-cyclohexylmethyl-phosphinic acid. Each of the test compounds was formulated at this dose level to yield a dose volume of 10 mL/kg and administered by oral gavage to a group of three mice per time point in each study group. Formulations: The compounds of this invention were dissolved in vehicle of 0.2% Tween 80 and 0.5% methylcellulose (MC) at a concentration of about 1 mg/mL. Samples: The blood samples (for plasma) were collected at the following time points: 5, 15 30 and 45 min […]; and 1, 2, 3, 4, 5, and 7 hrs post-dose. Brains were collected at 2, 4 and 7 hrs post-dose Blood Handling The blood samples were added to tubes containing 20 μL of a stock 10 mg/ml solution of sodium fluoride. The blood tubes were then stored in a refrigerator at approximately about 4° C. […] Bioanalysis: All plasma and brain samples were then analyzed for concentrations of the test compound as well as the parent compound, ((R)-3-amino-2-hydroxy-propyl)-cyclohexylmethyl-phosphinic acid by LC/MS/MS. […]
# Whereas, in most cases, the levels of the test compound was too small to be detected for all of the test compounds analyzed.
compound,measurement,setting,value
"NC[C@@H](O)CP(=O)(O)CC1CCCCC1 [parent compound, ((R)-3-amino-2-hydroxy-propyl)-cyclohexylmethyl-phosphinic acid]",activity in CMS (sucrose intake) compared with imipramine,Male Wistar rats,equal to that of imipramine
same,concentration of the parent compound in brain,[1],proportional to the concentration of the parent compound in plasma
